Source: patent publication US10517889B2, “Modulators of SMAD7 expression” (Ionis Pharmaceuticals, Inc., priority 2017, dated 2019)

How the values were obtained:
[1] = Hematology assays after subcutaneous administration in CD-1 mice (Example 6); format: in vivo; design: RBC / Eosinophils / Monocytes: unit not given here; conditions: 50 mg/kg subcutaneous twice weekly for 7 weeks
Summary of the method: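 Male CD-1 mice, 8-9 weeks old, 4 per group, given oligonucleotides 50 mg/kg s.c. twice weekly (100 mg/kg/week) for 7 weeks; PBS group as control. Blood analysed on an automated hematology analyzer for blood cell counts and other markers; plasma collected day 28.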

[2] = Oligonucleotide concentrations in tissues by LC-MS/MS after oral gavage in CD-1 mice (Example 7); format: in vivo; conditions: 500 mg/kg oral gavage once daily for 4 weeks, 48 hours after last dose
Procedure: Groups of 7-8 week old male CD-1 mice were given an oral gavage dose once daily for 4 weeks of 500 mg/kg of Ionis SMAD7 oligonucleotides. Each group contained 8 mice. One group of male CD-1 mice was administered saline by oral gavage daily.
Oligonucleotide concentrations were detected in various tissues by LC-MS/MS analysis. The greatest concentration was found in the kidney, followed by the colon.

[3] = Plasma chemistry markers after subcutaneous administration in CD-1 mice (Example 6); format: in vivo; conditions: CD-1 mice plasma at day 46; 50 mg/kg subcutaneously twice a week for 7 weeks
[4] = system: dog SMAD7 mRNA; assay: Pharmacology: dog SMAD7 mRNA expression in liver, kidney, duodenum, ileum and colon after subcutaneous administration in beagle dogs (Example 8); format: in vivo; conditions: 30 mg/kg subcutaneous, necropsy, normalized to HPRT1
Summary of the method: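 Beagle dogs, 4 per group, dosed subcutaneously with human ASOs complementary to dog SMAD7; liver, kidney, duodenum, ileum and colon collected at necropsy. SMAD7 mRNA quantified with primer-probe set RTS34649, normalized to HPRT1; one-way ANOVA with Dunnett's test.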

[5] = system: human peripheral blood mononuclear cells (PBMCs); assay: Human PBMC activation assay, cytokine levels (IL-10, IL-6, MCP-1, TNF-α) in supernatant after 24 hours (Example 9); conditions: human PBMC supernatant after 24 hours
[6] = Organ weights after subcutaneous administration in CD-1 mice (Example 6); format: in vivo; conditions: end of study, 50 mg/kg subcutaneously twice a week for 7 weeks
Summary of the method: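 Male CD-1 mice aged 8-9 weeks, 4 per group, were dosed subcutaneously twice weekly for 7 weeks with 50 mg/kg oligonucleotide (100 mg/kg/week), with PBS controls. Organ weights were assessed, and plasma was collected on day 28.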

[7] = Body and organ weights after oral gavage in CD-1 mice (Example 7); format: in vivo; conditions: 500 mg/kg oral gavage once daily for 4 weeks, end of study
Summary of the method: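 Male CD-1 mice, 7-8 weeks old (8 per group), received SMAD7 antisense oligonucleotides at 500 mg/kg by oral gavage once daily for 4 weeks, with a saline-gavage control group. Final body weights and organ weights were recorded at study end.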

[8] = Plasma chemistry markers after subcutaneous administration in beagle dogs (Example 8); conditions: 30 mg/kg subcutaneous days 1, 3, 5, 8, 15, 22, 29, plasma at day 31
[9] = Blood chemistry markers after oral gavage in CD-1 mice (Example 7); format: in vivo; conditions: 500 mg/kg oral gavage once daily for 4 weeks, day 30
Summary of the method: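 Male CD-1 mice, 7-8 weeks old, 8 per group, dosed by oral gavage once daily for 4 weeks with 500 mg/kg human SMAD7 antisense oligonucleotide; saline-gavaged group as control. Plasma transaminases, albumin and BUN measured on a clinical chemistry analyzer.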

Substance “830025 (antisense TTTGTAAATCGAAAGC; 3-10-3 cEt gapmer, further chemistry not given here) [compound 830025]” has an Eosinophils [1] of 3.8, a Hematocrit [1] of 38.7% and a Hemoglobin [1] of 12.5 g/dL. The Lymphocytes [1] was 83.2%, the MCH [1] was 15.7 pg and the MCHC [1] was 32.3 g/dL. It also gave an MCV [1] of 48.8 fL, a Monocytes [1] of 3.2 and a Neutrophils [1] of 9.3%. For the same substance, the RBC [1] was 8.0, the Reticulocytes [1] was 3.3% and the WBC [1] was 4.8 10^3/μL. The platelets [1] was 805.0 10^3/μL, the Basophils ([1]; n.d. = below detection levels) was 0.6 10^3/μL and the “Oligonucleotide concentration, Colon” value ([2]; colon) was 3.6 µg/g. The “Oligonucleotide concentration, Duodenum” value ([2]; duodenum) was 0.7 µg/g, the “Oligonucleotide concentration, Ileum” value ([2]; ileum) was 1.9 µg/g and the “Oligonucleotide concentration, Kidney” value ([2]; kidney) was 21.5 µg/g. The “Oligonucleotide concentration, Liver” value ([2]; liver) was 2.3 µg/g, the ALT [3] was 208 IU/L and the AST [3] was 263 IU/L. The Albumin [3] was 2.5 g/dL, the BUN [3] was 25 mg/dL and the “% inhibition of SMAD7 mRNA expression (compared to control), Distal colon” value ([4]; distal colon) was 3%. The “% inhibition of SMAD7 mRNA expression (compared to control), Duodenum” value ([4]; duodenum) was 7%, the “% inhibition of SMAD7 mRNA expression (compared to control), Ileum” value ([4]; ileum) was 9% and the “% inhibition of Smad7 mRNA expression (compared to control), Kidney” value ([4]; kidney) was 25%. For the same substance, the “% inhibition of Smad7 mRNA expression (compared to control), Liver” value ([4]; liver) was 0%, the “% inhibition of SMAD7 mRNA expression (compared to control), Proximal colon” value ([4]; proximal colon) was 24% and the “Levels of IL-6” value ([5]; 0.0128 μM oligonucleotide) was 3.1 pg/mL. The “Levels of IL-10” value ([5]; 0.0128 μM oligonucleotide) was 1.5 pg/mL, the “Levels of MCP-1” value ([5]; 0.0128 μM oligonucleotide) was 309.7 pg/mL and the “Levels of TNF-α” value ([5]; 0.0128 μM oligonucleotide) was 2.8 pg/mL. For the same substance, the “Levels of IL-6” value ([5]; 0.064 μM oligonucleotide) was 3.8 pg/mL, the “Levels of IL-10” value ([5]; 0.064 μM oligonucleotide) was 1.9 pg/mL and the “Levels of MCP-1” value ([5]; 0.064 μM oligonucleotide) was 353.9 pg/mL. For the same substance, the “Levels of TNF-α” value ([5]; 0.064 μM oligonucleotide) was 2.9 pg/mL, the “Levels of IL-6” value ([5]; 0.32 μM oligonucleotide) was 5.0 pg/mL and the “Levels of IL-10” value ([5]; 0.32 μM oligonucleotide) was 2.6 pg/mL. For the same substance, the “Levels of MCP-1” value ([5]; 0.32 μM oligonucleotide) was 387.7 pg/mL, the “Levels of TNF-α” value ([5]; 0.32 μM oligonucleotide) was 3.9 pg/mL and the “Levels of IL-6” value ([5]; 1.6 μM oligonucleotide) was 12.9 pg/mL. For the same substance, the “Levels of IL-10” value ([5]; 1.6 μM oligonucleotide) was 3.6 pg/mL, the “Levels of MCP-1” value ([5]; 1.6 μM oligonucleotide) was 554.3 pg/mL and the “Levels of TNF-α” value ([5]; 1.6 μM oligonucleotide) was 5.4 pg/mL. For the same substance, the “Levels of IL-6” value ([5]; 8 μM oligonucleotide) was 17.8 pg/mL, the “Levels of IL-10” value ([5]; 8 μM oligonucleotide) was 2.9 pg/mL and the “Levels of MCP-1” value ([5]; 8 μM oligonucleotide) was 750.0 pg/mL. For the same substance, the “Levels of TNF-α” value ([5]; 8 μM oligonucleotide) was 6.7 pg/mL, the “Levels of IL-6” value ([5]; 40 μM oligonucleotide) was 19.5 pg/mL and the “Levels of IL-10” value ([5]; 40 μM oligonucleotide) was 1.4 pg/mL. For the same substance, the “Levels of MCP-1” value ([5]; 40 μM oligonucleotide) was 580.8 pg/mL, the “Levels of TNF-α” value ([5]; 40 μM oligonucleotide) was 7.6 pg/mL and the “Levels of IL-6” value ([5]; 200 μM oligonucleotide) was 30.6 pg/mL. For the same substance, the “Levels of IL-10” value ([5]; 200 μM oligonucleotide) was 0.7 pg/mL, the “Levels of MCP-1” value ([5]; 200 μM oligonucleotide) was 52.7 pg/mL and the “Levels of TNF-α” value ([5]; 200 μM oligonucleotide) was 4.9 pg/mL. The “Organ weights, Kidneys” value [6] was 0.6 g, the “Organ weights, Liver” value [6] was 2.2 g and the “Organ weights, Spleen” value [6] was 0.2 g. The Body weight [7] was 35 g, the Heart weight [7] was 0.17 g and the Kidneys weight [7] was 0.71 g. For the same substance, the “Liver with gallbladder weight” value [7] was 1.88 g, the Spleen weight [7] was 0.10 g and the ALT [8] was 26 IU/L. For the same substance, the AST [8] was 38 IU/L, the Albumin [8] was 3.1 g/dL and the BUN [8] was 17.9 mg/dL. The Bilirubin [8] was 0.1 mg/dL, the Creatine [8] was 0.9 mg/dL and the ALT [9] was 34 IU/L. The AST [9] was 65 IU/L, the Albumin [9] was 3.3 g/dL and the BUN [9] was 21 mg/dL. For the same substance, the Bilirubin [9] was 0.2 mg/dL.
